Patent US20020018762A1, “Utilizing camptotheca products for termite control” (priority 2000, published 2002)
Read-outs that look alike come from different tables or passages of the source.

What was measured:
subterranean termites = conditions: for Damage to the treated wood sample: 4-week observation period; for Termites dead within 24 hours: of 30 termites
Method: 180 active subterranean termites, were grown in 9 cm Petri dishes in the dark with 30 termites in each of six dishes. In each dish, a filter paper is on the bottom to retain moisture along with a piece of treated southern yellow pine wood (relatively fresh, 3×3×7 cm). The wood was treated with one of the following natural products isolated from Camptotheca acuminata or water (as control) for 30 minutes and then dried: (1) pure CPT (>97%) (3.8 mg/l=3.8 ppm, with water as the solvent); (2) OHCPT (10-hydroxycamptothecin: 3.8 mg/l=3.8 ppm, with water as the solvent); (3) raw extraction of CPTs from young tissues (alkaloids: 8.75 mg/l=8.75 ppm, with 95% ethanol as the solvent); (4) flavonoids (13.9 mg/l=13.9 ppm with water as the solvent); (5) ethanol (95%); and (6) water (control). The termites and wood condition were checked and recorded every hour for the first 12 hours and every 8 hrs thereafter. The observation period was 4 weeks (May 20 to Jun. 17, 2000).

[1] = tested on: termites (including drywood termite, Incistermes snyderi); test: Field test of termite resistance of sprayed southern yellow pine boards (Example 3); format: in vivo
Method: There were 4 treatments including 3 pieces of sound southern yellow pine boards (30×9×4 cm) each. The wood was treated with either a natural product isolated from Camptotheca acuminata or water as a control. […] The boards were randomly placed on the ground where no termites were observed. The wood condition and termite activity were checked and recorded every week beginning May 20, 2000.

[2] = tested on: subterranean termites (Reticultitermes virginicus)
Method: 60 active subterranean termites (Reticultitermes virginicus) were grown in 9 cm Petri dishes in dark with 15 termites (10 soldiers and 5 workers) in each of four dishes. In each dish, a filter paper is placed on the bottom of the dish to retain moisture along with a piece of treated southern yellow pine wood (decayed, 3×3×7 cm). The wood was treated with one of the following natural products isolated from Camptotheca acuminata or water (as control) for 30 minutes and then dried: (1) pure CPT (>97%) (camptothecin, 3.8 mg/l=3.8 ppm, with water as the solvent); (2) raw extraction of CPTs from young tissues (alkaloids: 8.75 mg/l=8.75 ppm, with 95% ethanol as the solvent); (3) flavonoids (13.9 mg/l=13.9 ppm with water as the solvent); and (4) water (control). The termites and wood condition were checked and recorded every hour for the first 12 hours and every 8 hrs thereafter. The observation period was 4 weeks (May 17 to Jun. 14, 2000).

[3] = Water soak of Camptotheca stakes, HPLC analysis of extracted flavonoids and CPTs (Example 5, FIG. 3); format: physicochemical
Text: For example, the Camptotheca wood containing CPTs (CPT concentrations: 30-100 ppm) after extraction of flavonoids may be used in preparation of termite-resistant wood products such as composition boards, particleboards, and fiberboards. FIG. 3 illustrates the effect of a water soak on the content of flavonoids and CPT over time.
In July 2000, we conducted an experiment with several pieces of Camptotheca stakes (c. 10 cm in length and 3 cm in diameter) soaked in nanopure water. A month later, water samples were collected from the water with stakes and only water (as control) for HPLC analysis.

[4] = tested on: Masson pine caterpillar (Dendrolimus punctatus); conditions: cited from earlier work
[5] = Effect of the particleboard process on CPT content (FIG. 4); format: physicochemical; conditions: heat and pressure pressing
Text: Particleboard is an engineered wood product used as core material in the construction of home and office furniture, shelving and kitchen cabinets, as well as commercial and institutional fixtures. The major source for the manufacture of particleboard is southern yellow pine. Termite-resistant particleboard is not available. The present invention provides a method of preparing termite-resistant particleboards by including 30-70% Camptotheca wood in combination with currently-existing particleboard materials, e.g., pine, in a process as shown in Example 6. […] Similarly, the CPT content 260 in the raw material from bark and wood 290 and the particleboard from bark and wood 300 remained the same after the particleboard process.
Termite-resistant particleboards were prepared in accordance with the invention, using southern yellow pine mixed with natural Camptotheca acuminata wood after extraction of flavonoids. Six 5-year-old Camptotheca acuminata trees were harvested. The wood materials were classified into: trunk wood without bark, trunk wood with bark, branch wood without bark, and branch wood with bark. The sample materials were chipped and milled into uniformly small particles (20-30 mesh) and soaked in water for a week. The southern yellow pine wood was prepared in the same size as the control sample. […]

[6] = 30 termites per dish, CPT 3.8 ppm, OHCPT 3.8 ppm, raw CPTs 8.75 ppm, flavonoids 13.9 ppm, ethanol 95%
[7] = 15 termites per dish, wood treated 30 min, CPT 3.8 ppm, raw CPTs 8.75 ppm, flavonoids 13.9 ppm

Question: Which results are given for `CC[C@@]1(O)C(=O)OCc2c1cc1n(c2=O)Cc2cc3ccccc3nc2-1` [CPT, camptothecin]?
Answer: Damage to the treated wood sample (subterranean termites): no obvious damage; Time within which termite mortality was 100% (subterranean termites; 30 termites per dish): ≤ 5 days; Mortality within 1 week (subterranean termites; [6]): 100%; Mortality within 4 weeks (subterranean termites; [6]): 100%; Time after which all termites became inactive (subterranean termites; CPT 3.8 ppm): 10 h; Termite behaviour toward the treated wood (repellency / attraction) (subterranean termites; in vivo): avoided getting close to the wood after the initial contract; Termites dead within 24 hours (subterranean termites): 12; Termite damage of treated wood (based on weight) ([1]; field, three months, CPT 380 ppm, raw CPTs 8.75 ppm, flavonoids 13.9 ppm): no termite damage; Termite damage of treated southern yellow pine lumber in the field ([1]; within 3 months): damage-free; Damage to the treated wood sample ([2]; 4-week observation period): no obvious damage; Time within which termite mortality was 100% ([2]; 15 termites per dish, CPT 3.8 ppm, raw CPTs 8.75 ppm): ≤ 4 days; Mortality within 1 week [2, 7]: 100%; Mortality within 4 weeks [2, 7]: 100%; Mortality within 1 week ([2]; 15 termites per dish, wood treated 30 min, CPT 3.8 ppm, raw CPTs 8.75 ppm, flavonoids 13.9 ppm, listed as purified CPT): all termites dead; Time after which termites became inactive ([2]; CPT 3.8 ppm): 6 h; Termites dead within 36 hours ([2]; of total 15 termites, CPT 3.8 ppm): Six; Termite damage of treated pine stakes within a week ([2]; summary of Examples 1 and 2): damage free; Extraction by water soak at day 7 (FIG. 3) ([3]; day 7): not extracted; Extraction by water soak at day 30 (FIG. 3) ([3]; day 30): remains water insoluble; Hatchability of eggs ([4]; after treatment with 0.05% CPT): decreased; Mortality of insect larvae, pupae, and adults ([4]; after treatment with CPT): increased; Effect of particleboard process on CPT content [5]: no significant effect

Question: With `CCO` [Ethanol, ethanol] as the molecule, how does the “Damage to the treated wood sample” value (subterranean termites) read?
Answer: Its value is “No wood damage”.

Question: What about the “Mortality within 1 week” value (subterranean termites; in vivo) of the same molecule?
Answer: The value was 100%.

Question: What about the “Mortality within 4 weeks” value (subterranean termites; in vivo) of the same molecule?
Answer: Its value is 100%.

Question: Which “Damage to the treated wood sample” value (subterranean termites) does the source give for `CC[C@@]1(O)C(=O)OCc2c1cc1n(c2=O)Cc2cc3cc(O)ccc3nc2-1` [OHCPT, 10-hydroxycamptothecin] here?
Answer: Its value is “no obvious damage”.

Question: What about the “Time within which termite mortality was 100%” value (subterranean termites; 30 termites per dish) of the same molecule?
Answer: Its value is ≤ 6 days.

Question: What about the “Mortality within 1 week” value (subterranean termites; [6]) of the same molecule?
Answer: The value was 100%.

Question: What about the “Mortality within 4 weeks” value (subterranean termites; [6]) of the same molecule?
Answer: Its value is 100%.

Question: And the “Termites dead within 24 hours” value (subterranean termites)?
Answer: Its value is 16.
